Tests used:
C4-2 cells = test: Cytotoxicity, CellTiter-Glo cell viability assay, C4-2 cells; assay type: cell-based
Description: (§1) PC3, C4-2, and C4-2Luc cells were seeded at a density of 3,000 cells/well in 96-well plates and incubated at 37° C. under 5% CO2. Next day, the cells were treated with Dox, DAC+Dox, or DAC-D for 24 h. Next day the treatment was removed, cells were washed once with warm fresh media and incubated for another 48 h in fresh media. Cell counts were measured indirectly by measuring the ATP amounts using CellTiter-Glo® luminescent cell viability assay (Promega, Madison, Wis.) according to the manufacturer's protocol. In co-culture experiments, PC3 and C4-2Luc cells were each seeded at a density of 1,500 cells/well in 96-well plates. Co-cultured cells were treated with Dox, DAC+Dox, or DAC-D and cell viability was also measured using the CellTiter-Glo® assay. Luciferase levels were measured for co-cultures of PC3 and C4-2Luc cells using a luciferase reporter assay system (Promega). PC3 and C4-2Luc cells were seeded and treated as described above and the cells were lysed and luciferase activity was measured according to the manufacturer's protocol.

PC3 cells = test: Cytotoxicity, CellTiter-Glo cell viability assay, PC3 cells; assay type: cell-based
Description: as §1

PSMA+ C4-2 cells = test: Uptake/internalization by confocal microscopy and flow cytometry, PSMA+ C4-2 cells; assay type: cell-based
Description: (§2) Cells were seeded at 20,000 cells/well in 8-well Lab-Tek® II chambered #1.5 German coverglass system (Thermo Fisher Sci., Waltham, Mass.), and incubated at 37° C. under 5% CO2 for 2 days. Cells were incubated with 1 μM of DAC in which the dA16 aptamer was labeled with Quasar 570 at the 5′-terminus and the T16 aptamer was labeled with Quasar 670 dyes in RPMI with 10% FBS for 2 h at 37° C. Cells were washed with fresh media and DPBS, followed by a 5 min fixation with 3.7% formaldehyde in DPBS. Cells were visualized using a Zeiss LSM510 confocal microscope (Carl Zeiss, Oberkochen, Germany). Cells were also incubated with 1 μM of DAC-D (or the non-covalent DAC+D), for 2 h. DAC were only labeled with Quasar 670 for these studies as the Quasar 570 emission would interfere with the Dox emission. Cells were washed, fixed, and imaged using identical procedures.
(§3) PC3 and C4-2 cells were incubated with 1 μM of DAC for 2 h at 37° C. Dimers were fluorescently labeled with either Quasar 570 or 670 alone, or both. Cells were trypsinized and washed with PBS twice. Cells re-suspended in PBS were analyzed to measure their intracellular fluorescence using the Accuri™ C6 flow cytometer (BD Biosciences).

PSMA-null PC3 cells = test: Uptake/internalization by confocal microscopy and flow cytometry, PSMA-null PC3 cells; assay type: cell-based; details: 1 μM, 2 h, confocal microscopy
Description: as §2, §3

[1] = cited from earlier work
[2] = Temperature-dependent UV melting (thermal stability of dimeric aptamer complexes); assay type: physicochemical; details: UV absorbance at 260 nm, heating 0.7° C./min
Description: Temperature-dependent UV absorption spectra were obtained using a Beckman Coulter DU-800 UV-Vis spectrophotometer. Samples of DAC, DAC-D, and DAC+D were prepared. The temperature was increased at a rate of 0.7° C./min over the range 20-85° C. and absorbance at 260 nm was measured for each sample, (400 μL, 1 μM) concentration.

[3] = Determination of Dox:DNA ratios by absorbance; assay type: physicochemical
Description: DNA Ratios: DNA samples were prepared in dH2O, and absorbencies were measured from 200-800 nm using a Beckman Coulter DU800 spectrophotometer. A standard curve of Dox was established between 1 μM and 10 μM by using absorbencies at 494 nm at 85° C. To assess the amount of Dox covalently bound to DNA, the samples were heated to 85° C. before measuring the absorbance at 494 nm and 260 nm. The 260 nm wavelength was used to determine the DNA content in the sample and to determine the Dox:DNA ratio.

Compound | reduction in viability (C4-2 cells; 2 μM Dox, 24 h treatment + 48 h growth, cell line not specified in the sentence (PC3 and C4-2)) | cytotoxicity (in words) (C4-2 cells; C4-2 cells) | cytotoxicity (in words) (PC3 cells) | Dox internalization / nuclear accumulation (PSMA+ C4-2 cells; 1 μM, 2 h, confocal microscopy, C4-2 cells) | Dox internalization / nuclear accumulation (PSMA-null PC3 cells; PC3 cells) | pKa of the doxorubicin amino group [1] | dissociation temperature [2] | uptake of fluorescently-labeled aptamer (PSMA+ C4-2 cells; 1 μM, 2 h, Quasar 570/670 labels, confocal microscopy) | uptake after pre-incubation with J591 PSMA-specific monoclonal antibody (PSMA+ C4-2 cells; C4-2 cells pre-incubated with J591) | uptake of fluorescently-labeled aptamer (PSMA-null PC3 cells; Quasar 570/670 labels) | calc ratio (Dox bound per DAC) ([3]; Dox:DAC ratio 16x) | calc ratio (Dox bound per DAC) ([3]; Dox:DAC ratio 24x) | calc ratio (Dox bound per DAC) ([3]; Dox:DAC ratio 32x) | molar equivalents of doxorubicin that can be covalently bound to each DAC ([3]; titration)
COc1cccc2c1C(=O)c1c(O)c3c(c(O)c1C2=O)C[C@@](O)(C(=O)CO)C[C@@H]3O[C@H]1C[C@H](N)[C@H](O)[C@H](C)O1 [Dox, doxorubicin] | ~90% | highly cytotoxic | highly cytotoxic | readily accumulated | readily accumulated | 8.2 |  |  |  |  |  |  |  | 
DAC: Dimer of PSMA DNA aptamer SZTI01 annealed through dCGGCA16GCCG / dCGGCT16GCCG tails (SEQ ID NO:5, 6) (chain 1 CGGCAAAAAAAAAAAAAAAAGCCG; chain 2 CGGCTTTTTTTTTTTTTTTTGCCG; DNA, backbone and methylation of C not given here; tails of DNA aptamer dimer, further chemistry not fully specified) |  |  |  |  |  |  | ~58 °C | strong signal | attenuated | minimal uptake | 10.8 | 14.18 | 13.7156 | 14 molar equivalents
